# Values quoted from earlier work, collected in US12636242B2, “Increased solubilization of diethylamino hydroxybenzoyl hexyl benzoate” (DSM IP ASSETS B.V., priority 2020, dated 2026).
# Read-outs that look alike come from different tables or passages of the source.
# [1] = listed as Diethylamino hydroxybenzoyl hexyl benzoate
smiles,measurement,setting,value
"CCCCCCOC(=O)c1ccccc1C(=O)c1ccc(N(CC)CC)cc1O [UV-filter of the formula (I), diethylamino hydroxybenzoyl hexyl benzoate]","Solubility in esters and alcohols (ethyl hexyl-benzoate, ethanol)",,very soluble
same,"Solubility in esters and alcohols (ethyl hexyl-benzoate, ethanol)",[1],moderate solubility
same,Solubility in water and alkanes,,insoluble
same,Solubility in water and alkanes,[1],very low
